Source: paper PMC7036132, “Effects of the Salt-Processing Method on the Pharmacokinetics and Tissue Distribution of Orally Administered Morinda officinalis How. Extract” (Journal of Analytical Methods in Chemistry, 2020)
“And” between values parts separate entries of the source, which are not always exact repeats. Equal values may be shown once.

Key:
[1] = Pharmacokinetics in rat plasma after oral administration of MO and SMO extract (UPLC-MS/MS); assay type: in vivo, Sprague-Dawley (SD) rats; settings: for Cmax: male, Sprague-Dawley, rat, plasma, po, 40 g/kg; for Cmax / AUC (0-t) / AUC (0-∞) / CL/F / MRT (0-t) / T max / V/F / t1/2z: n = 6
Description: (§1) For LC-MS/MS analysis, data acquisition and instrument control were performed using MassLynx 4.1 software (Waters Corp., Milford, MA, USA). The analysis column was an Acquity UPLC HSS T3 column (100 mm × 2.1 mm, 1.8 μm, Waters) with a temperature of 40°C. The mobile phase was acetonitrile containing 0.1% formic acid (A) and 0.1% formic acid aqueous solution (B). The elution gradient was 0.00–0.50 min with 2% B; 0.51–5.00 min with 2%–30% B; and 5.01–7.00 min with 40% B. The flow rate was 0.2 mL/min.
(§2) The Waters triple quadruple mass spectrometer (Xevo TQD, Waters Corp., Milford, MA, USA) equipped with an electrospray ionization source (ESI) was used in negative ion mode. The desolvation gas was nitrogen with a flow rate of 500 L/h at a temperature of 250°C. All detected compounds were measured in multiple reaction monitoring (MRM) mode.
10 μL of IS working solution and 400 μL of methanol were added to 100 μL plasma. The solution was vortexed for 10 min and then centrifuged at 12,000 rpm for 5 min. The supernatant was shifted to another centrifugation tube and dried with nitrogen at 37°C. The residue was redissolved in 100 μL acetonitrile and centrifuged for 5 min at 12,000 rpm. Five microliters of supernatant was drawn and analyzed by UPLC-MS/MS.
The SD rats (6, male) were housed at 22 ± 2°C and fasted for 12 h with drinking water available ad libitum. MO and SMO ethanol extract were orally administered at a dose of 40 g/kg (equivalent to 6.44 and 3.95 mg/kg of monotropein, 0.088 and 0.091 mg/kg of rubiadin, and 0.174 and 0.178 mg/kg of rubiadin 1-methyl ether). Blood samples (0.5 mL) were collected from the venous plexus of the eye socket at 0.083, 0.25, 0.5, 1.0, 1.5, 2.0, 2.5, 4.0, 6.0, 12.0, and 24 h under anesthesia. Then, the blood samples were centrifuged at 4500 rpm for 10 min, and then the plasma was immediately transferred to new tubes and stored at −80°C until analysis. The pharmacokinetic parameters were calculated using DAS software (3.0 version, China Food and Drug Administration) based on noncompartmental method. All data were recorded as mean ± SD.

[2] = Tissue distribution after oral administration of MO and SMO extract; assay type: in vivo, SD rats; settings: rat; 0.25, 1, 3 and 6 h after oral MO or SMO extract 40 g/kg
Description: as §1, §2
The whole tissue was cut into pieces and homogenized with ice-cold 0.9% (m/v) sodium chloride solution (1 : 9, w/v). Using 50 μL of tissue homogenate, the tissue samples were prepared in the same way as the plasma samples.
MO and SMO ethanol extract (40 g/kg) was orally administered to SD rats (weight, 180–220 g, n = 6), at 0.25, 1, 3, and 6 h, respectively. […]

Q: For `O=C(O)C1=CO[C@@H](O[C@@H]2O[C@H](CO)[C@@H](O)[C@H](O)[C@H]2O)[C@H]2[C@@H]1C=C[C@]2(O)CO` [Monotropein, monotropein], which Cmax ([1]; oral MO extract 40 g/kg) is on record?
A: Its Cmax is 23.3 ± 0.764 ng/mL.

Q: And the Cmax ([1]; oral SMO extract 40 g/kg)?
A: The Cmax was 23.3 ± 0.676 ng/mL.

Q: And the “Shape of plasma concentration-time curve” value ([1]; oral MO and SMO extract 40 g/kg)?
A: The value was “obvious double-peak phenomenon”.

Q: And the “AUC (0-t)” value ([1]; oral MO extract 40 g/kg)?
A: The value was 44.22 ± 0.932 μg/L ∗ h.

Q: What about the “AUC (0-∞)” value ([1]; oral MO extract 40 g/kg) of the same molecule?
A: The value was 48.952 ± 1.559 μg/L ∗ h.

Q: And the CL/F ([1]; oral MO extract 40 g/kg)?
A: The CL/F was 0.818 ± 0.265 L/g/h.

Q: What about the “MRT (0-t)” value ([1]; oral MO extract 40 g/kg) of the same molecule?
A: Its value is 3.863 ± 0.184 H.

Q: What about the T max ([1]; oral MO extract 40 g/kg) of the same molecule?
A: Its T max is 1.0 H and 1.0 ± 0.00 H.

Q: And the V/F ([1]; oral MO extract 40 g/kg)?
A: The V/F was 14.447 ± 2.143 L/g.

Q: What about the t1/2z ([1]; oral MO extract 40 g/kg) of the same molecule?
A: Its t1/2z is 12.291 ± 2.09 H.

Q: What about the “AUC (0-t)” value ([1]; oral SMO extract 40 g/kg) of the same molecule?
A: Its value is 26.941 ± 1.423 μg/L ∗ h.

Q: And the “AUC (0-∞)” value ([1]; oral SMO extract 40 g/kg)?
A: The value was 27.045 ± 1.338 μg/L ∗ h.

Q: And the CL/F ([1]; oral SMO extract 40 g/kg)?
A: The CL/F was 1.482 ± 0.750 L/g/h.

Q: What about the “MRT (0-t)” value ([1]; oral SMO extract 40 g/kg) of the same molecule?
A: The value was 1.686 ± 0.025 H.

Q: What about the T max ([1]; oral SMO extract 40 g/kg) of the same molecule?
A: The T max was 0.5 H and 0.5 ± 0.00 H.

Q: What about the V/F ([1]; oral SMO extract 40 g/kg) of the same molecule?
A: Its V/F is 12.239 ± 9.027 L/g.

Q: And the t1/2z ([1]; oral SMO extract 40 g/kg)?
A: Its t1/2z is 5.611 ± 3.958 H.

Q: And the “Concentration in lung tissue” value [2]?
A: Its value is “could not be quantified”.
